Measurements from patent US20200405696A1, “INHIBITORS OF INDOLEAMINE 2,3-DIOXYGENASE AND/OR TRYPTOPHAN 2,3-DIOXYGENASE” (IDORSIA PHARMACEUTICALS LTD, priority 2018, published 2020).

Key:
[1] = target: T1, Recombinant full-length human IDO1 (Homo sapiens, UniProt P14902); assay: IDO1 enzymatic assay (NFK quantified by LCMS); format: biochemical; conditions: 2 nM enzyme, 5 μM L-tryptophan, pH6.5, 30 minutes pre-incubation at RT; mean values when measured multiple times; read-out: hIDO activity (IC50 in nM)
T1 construct: Recombinant full-length human IDO1 with a N-terminal hexahistidine tag; hexahistidine (His6) (N); made in house; host or cells: E. coli
T1 sequence (P14902 whole entry): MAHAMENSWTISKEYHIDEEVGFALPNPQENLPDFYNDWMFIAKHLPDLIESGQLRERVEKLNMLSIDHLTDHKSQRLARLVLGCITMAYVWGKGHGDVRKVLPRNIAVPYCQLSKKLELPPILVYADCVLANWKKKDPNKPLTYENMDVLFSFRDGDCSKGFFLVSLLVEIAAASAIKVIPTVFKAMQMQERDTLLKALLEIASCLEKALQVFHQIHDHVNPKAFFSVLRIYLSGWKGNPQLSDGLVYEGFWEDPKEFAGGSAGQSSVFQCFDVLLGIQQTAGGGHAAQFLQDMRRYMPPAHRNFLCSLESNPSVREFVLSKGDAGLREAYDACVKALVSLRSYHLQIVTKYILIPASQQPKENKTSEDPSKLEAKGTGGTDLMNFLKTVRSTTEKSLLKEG
Method: 1) Testing Compounds for IDO Inhibitory Activity in an IDO1 Enzymatic Assay:
Recombinant full-length human IDO1 with a N-terminal hexahistidine tag expressed in E. coli and purified to homogeneity is incubated at a final concentration of 2 nM in assay buffer consisting of 37.5 mM phosphate buffer at pH6.5 supplemented with 10 mM ascorbic acid, 0.45 μM methylene blue, 50U/ml catalase, 0.01% BSA, and 0.01% Tween 20 (protocol modified from Seegers et al, JBS 2014). Example compounds are serially diluted in DMSO, further diluted in phosphate buffer, and added to the enzyme at final concentrations ranging from 10 μM to 0.5 nM. The final DMSO concentration is 0.6%. Following a pre-incubation of 30 minutes at RT, the reaction is started by the addition of L-tryptophan at a final concentration of 5 μM in assay buffer. After 30 minutes of incubation at RT, 3 μL of the 20 μl reaction mixture are transferred to a 384 deep well plate containing 25 μL of deionized water. 100 μl of 200 nM L-Tryptophan-(indole-d5) in cold 100% methanol are added followed by a 10 minutes centrifugation at 3220×g at 4° C. An additional 75 μL of deionized water are then added followed by a 10 minutes centrifugation at 3220×g at 4° C. The product of the reaction N′-Formylkynurenine (NFK) is quantified by LCMS and normalized to the L-Tryptophan-(indole-d5) signal. Samples with 0.6% DMSO (0% effect) and a TDO/IDO inhibitor (100% effect) are used as control samples to set the parameters for the non-linear regression necessary for the determination of the half-maximal inhibitory concentration (IC50) for each compound. For each compound concentration the percentage of activity compared to 0% and 100% effect is calculated as average±STDEV (each concentration measured in duplicate). IC50 values and curves are generated with XLfit software (IDBS) using Dose-Response One Site model 203 (four parameter logistic curve model). The calculated IC50 values may fluctuate depending on the daily assay performance. Fluctuations of this kind are known to those skilled in the art. When compounds are measured multiple times, mean values are given.

[2] = target: T2, Recombinant human TDO comprising amino acids 19-407 (Homo sapiens, UniProt P48775); assay: TDO2 enzymatic assay (NFK quantified by LCMS); format: biochemical; conditions: 15 nM enzyme, 200 μM L-tryptophan, pH7, 30 minutes pre-incubation at RT; mean values when measured multiple times; read-out: hTDO activity (IC50 in nM)
T2 construct: Recombinant human TDO comprising amino acids 19-407 with a N-terminal hexahistidine tag; hexahistidine (His6) (N); made in house; host or cells: E. coli
T2 sequence (P48775 19-406 limits assumed): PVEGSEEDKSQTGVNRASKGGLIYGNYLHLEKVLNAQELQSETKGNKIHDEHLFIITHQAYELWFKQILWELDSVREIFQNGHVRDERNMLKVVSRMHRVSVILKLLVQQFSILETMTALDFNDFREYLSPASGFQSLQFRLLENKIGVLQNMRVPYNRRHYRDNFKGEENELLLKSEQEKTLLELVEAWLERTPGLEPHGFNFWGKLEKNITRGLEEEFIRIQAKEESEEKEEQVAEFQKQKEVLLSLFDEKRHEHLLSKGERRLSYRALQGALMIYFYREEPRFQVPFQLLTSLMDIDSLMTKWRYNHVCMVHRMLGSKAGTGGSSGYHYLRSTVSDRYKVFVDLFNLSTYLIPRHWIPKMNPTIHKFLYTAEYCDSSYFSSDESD
Method: 2) Testing Compounds for TDO Inhibitory Activity in a TDO2 Enzymatic Assay:
Recombinant human TDO comprising amino acids 19-407 with a N-terminal hexahistidine tag expressed in E. coli and purified to homogeneity is incubated at a final concentration of 15 nM in assay buffer consisting of 75 mM phosphate buffer at pH7 supplemented with 100 μM ascorbic acid, 50U/ml Catalase, 0.01% BSA, and 0.01% Tween 20 (protocol modified from Seegers et al, JBS 2014). Example compounds are serially diluted in DMSO, further diluted in phosphate buffer, and added to the reaction mixture at final concentrations ranging from 10 μM to 0.5 nM. The final DMSO concentration is 0.6%. Following a pre-incubation of 30 minutes at RT, the reaction is started by the addition of L-tryptophan at a final concentration of 200 μM in assay buffer. After 30 minutes of incubation at RT, 3 μL of the reaction mixture are transferred to a 384 deep well plate containing 25 μL of deionized water. 100 μl of 200 nM L-Tryptophan-(indole-d5) in cold 100% methanol are added followed by a 10 minutes centrifugation at 3220×g at 4° C. An additional 75 μL of deionized water are then added followed by a 10 minutes centrifugation at 3220×g at 4° C. The product of the reaction N′-Formylkynurenine (NFK) is quantified by LCMS and normalized to the L-Tryptophan-(indole-d5) signal. Samples with 0.6% DMSO (0% effect) and a TDO/IDO inhibitor (100% effect) are used as control samples to set the parameters for the non-linear regression necessary for the determination of the half-maximal inhibitory concentration (IC50) for each compound. For each compound concentration the percentage of activity compared to 0% and 100% effect is calculated as average±STDEV (each concentration measured in duplicate). IC50 values and curves are generated with XLfit software (IDBS) using Dose-Response One Site model 203 (four parameter logistic curve model). The calculated IC50 values may fluctuate depending on the daily assay performance. Fluctuations of this kind are known to those skilled in the art. When compounds are measured multiple times, mean values are given.

OC(c1cn(-c2cccc3ccncc23)nn1)c1c(C2CC2)sc2cncn12 (racemic) [Example 22, rac-(2-Cyclopropyl-imidazo[5,1-b]thiazol-3-yl)-(1-isoquinolin-8-yl-1H-[1,2,3]triazol-4-yl)-methanol]
IC50 [1]: 39.6 nM | IC50 [2]: > 10200 nM

OC(c1cn(-c2cccc3cnccc23)nn1)c1c(C2CC2)sc2cncn12 (racemic) [Example 23, rac-(2-Cyclopropyl-imidazo[5,1-b]thiazol-3-yl)-(1-isoquinolin-5-yl-1H-[1,2,3]triazol-4-yl)-methanol]
IC50 [1]: 24 nM | IC50 [2]: > 10200 nM

OC(c1cn(-c2cccc3ncccc23)nn1)c1c(C2CC2)sc2cncn12 (racemic) [Example 24, rac-(2-Cyclopropyl-imidazo[5,1-b]thiazol-3-yl)-(1-quinolin-5-yl-1H-[1,2,3]triazol-4-yl)-methanol]
IC50 [1]: 22.8 nM | IC50 [2]: > 10200 nM

OC(c1cn(-c2ccnc3ccccc23)nn1)c1c(C2CC2)sc2cncn12 (racemic) [Example 25, rac-(2-Cyclopropyl-imidazo[5,1-b]thiazol-3-yl)-(1-quinolin-4-yl-1H-[1,2,3]triazol-4-yl)-methanol]
IC50 [1]: 18.3 nM | IC50 [2]: > 10200 nM

OC(c1cn(-c2cncc3ccccc23)nn1)c1c(C2CC2)sc2cncn12 (racemic) [Example 26, rac-(2-Cyclopropyl-imidazo[5,1-b]thiazol-3-yl)-(1-isoquinolin-4-yl-1H-[1,2,3]triazol-4-yl)-methanol]
IC50 [1]: 5.68 nM | IC50 [2]: 4190 nM

OC(c1cn(-c2cccc3cc[nH]c23)nn1)c1c(C2CC2)sc2cncn12 (racemic) [Example 27, rac-(2-Cyclopropyl-imidazo[5,1-b]thiazol-3-yl)-[1-(1H-indol-7-yl)-1H-[1,2,3]triazol-4-yl]-methanol]
IC50 [1]: 24.1 nM | IC50 [2]: > 10200 nM

Cc1cccc(-n2cc(C(O)c3c(C4CC4)sc4cncn34)nn2)c1 (racemic) [Example 28, rac-(2-Cyclopropyl-imidazo[5,1-b]thiazol-3-yl)-(1-m-tolyl-1H-[1,2,3]triazol-4-yl)-methanol]
IC50 [1]: 28.8 nM | IC50 [2]: > 10200 nM

OC(c1cn(-c2ccccc2C(F)(F)F)nn1)c1c(C2CC2)sc2cncn12 (racemic) [Example 29, rac-(2-Cyclopropyl-imidazo[5,1-b]thiazol-3-yl)-[1-(2-trifluoromethyl-phenyl)-1H-[1,2,3]triazol-4-yl]-methanol]
IC50 [1]: 163 nM | IC50 [2]: > 10200 nM

OC(c1cn(-c2ccncc2)nn1)c1c(C2CC2)sc2cncn12 (racemic) [Example 30, rac-(2-Cyclopropyl-imidazo[5,1-b]thiazol-3-yl)-(1-pyridin-4-yl-1H-[1,2,3]triazol-4-yl)-methanol]
IC50 [1]: 63.2 nM | IC50 [2]: > 10200 nM

OC(c1cn(-c2ccc(OC(F)(F)F)cc2)nn1)c1c(C2CC2)sc2cncn12 (racemic) [Example 31, rac-(2-Cyclopropyl-imidazo[5,1-b]thiazol-3-yl)-[1-(4-trifluoromethoxy-phenyl)-1H-[1,2,3]triazol-4-yl]-methanol]
IC50 [1]: 108 nM | IC50 [2]: > 10200 nM

CCOc1ccc(-n2cc(C(O)c3c(C4CC4)sc4cncn34)nn2)cc1 (racemic) [Example 32, rac-(2-Cyclopropyl-imidazo[5,1-b]thiazol-3-yl)-[1-(4-ethoxy-phenyl)-1H-[1,2,3]triazol-4-yl]-methanol]
IC50 [1]: 5.3 nM | IC50 [2]: > 10200 nM

CC(C)Oc1ccc(-n2cc(C(O)c3c(C4CC4)sc4cncn34)nn2)cc1 (racemic) [Example 33, rac-(2-Cyclopropyl-imidazo[5,1-b]thiazol-3-yl)-[1-(4-isopropoxy-phenyl)-1H-[1,2,3]triazol-4-yl]-methanol]
IC50 [1]: 20 nM | IC50 [2]: > 10200 nM

OC(c1cn(-c2ccc(Cl)cc2)nn1)c1c(C2CC2)sc2cncn12 (racemic) [Example 34, rac-[1-(4-Chloro-phenyl)-1H-[1,2,3]triazol-4-yl]-(2-cyclopropyl-imidazo[5,1-b]thiazol-3-yl)-methanol]
IC50 [1]: 21.9 nM | IC50 [2]: > 10200 nM

OC(c1cn(-c2ccc(OCC3CC3)cc2)nn1)c1c(C2CC2)sc2cncn12 (racemic) [Example 35, rac-(2-Cyclopropyl-imidazo[5,1-b]thiazol-3-yl)-[1-(4-cyclopropylmethoxy-phenyl)-1H-[1,2,3]triazol-4-yl]-methanol]
IC50 [1]: 8.83 nM | IC50 [2]: > 10200 nM

COC(=O)Nc1ccc(-n2cc(C(O)c3c(C4CC4)sc4cncn34)nn2)cc1 (racemic) [Example 36, rac-(4-{4-[(2-Cyclopropyl-imidazo[5,1-b]thiazol-3-yl)-hydroxy-methyl]-[1,2,3]triazol-1-yl}-phenyl)-carbamic Acid Methyl Ester]
IC50 [1]: 11.1 nM | IC50 [2]: 8520 nM

OC(c1cn(-c2ccc(CN3CCOCC3)cc2)nn1)c1c(C2CC2)sc2cncn12 (racemic) [Example 37, rac-(2-Cyclopropyl-imidazo[5,1-b]thiazol-3-yl)-[1-(4-morpholin-4-ylmethyl-phenyl)-1H-[1,2,3]triazol-4-yl]-methanol]
IC50 [1]: 175 nM | IC50 [2]: > 10200 nM

OC(c1cn(-c2ccc(N3CCOCC3)cc2)nn1)c1c(C2CC2)sc2cncn12 (racemic) [Example 38, rac-(2-Cyclopropyl-imidazo[5,1-b]thiazol-3-yl)-[1-(4-morpholin-4-yl-phenyl)-1H-[1,2,3]triazol-4-yl]-methanol]
IC50 [1]: 72.7 nM | IC50 [2]: > 10200 nM

OC(c1cn(-c2ccc3c(c2)OCCO3)nn1)c1c(C2CC2)sc2cncn12 (racemic) [Example 39, rac-(2-Cyclopropyl-imidazo[5,1-b]thiazol-3-yl)-[1-(2,3-dihydro-benzo[1,4]dioxin-6-yl)-1H-[1,2,3]triazol-4-yl]-methanol]
IC50 [1]: 21.9 nM | IC50 [2]: > 10200 nM

OCC1(c2ccc(-n3cc(C(O)c4c(C5CC5)sc5cncn45)nn3)cc2)CC1 (racemic) [Example 40, rac-(2-Cyclopropyl-imidazo[5,1-b]thiazol-3-yl)-{1-[4-(1-hydroxymethyl-cyclopropyl)-phenyl]-1H-[1,2,3]triazol-4-yl}-methanol]
IC50 [1]: 68.3 nM | IC50 [2]: > 10200 nM

OC(c1cn(-c2cn[nH]c2)nn1)c1c(C2CC2)sc2cncn12 (racemic) [Example 41, rac-(2-Cyclopropyl-imidazo[5,1-b]thiazol-3-yl)-[1-(1H-pyrazol-4-yl)-1H-[1,2,3]triazol-4-yl]-methanol]
IC50 [1]: 305 nM | IC50 [2]: > 10200 nM

CCOc1ccc(-n2cc(C(O)c3c(C4CC4)sc4cncn34)nn2)cn1 (racemic) [Example 42, rac-(2-Cyclopropyl-imidazo[5,1-b]thiazol-3-yl)-[1-(6-ethoxy-pyridin-3-yl)-1H-[1,2,3]triazol-4-yl]-methanol]
IC50 [1]: 20.2 nM | IC50 [2]: > 10200 nM
